Experimental data from publication PMC5424110, “Preclinical anti-arthritic study and pharmacokinetic properties of a potent histone deacetylase inhibitor MPT0G009” (Cell Death & Disease, 2014).
Entries after “also recorded” stand apart in the source; their conditions may differ.

Legend:
[1] = molecular target: T1, recombinant HDAC6 (Homo sapiens, UniProt Q9UBN7); assay: Fluorogenic assay kit, recombinant HDAC6 enzyme activity; assay type: biochemical; details: mean±S.E.M., three replicate experiments; read-out: IC50 (nM) of HDAC isoforms enzyme, HDAC6
T1 construct: purchased BPS Bioscience Corp. (San Diego, CA, USA)
Excerpt: (§1) Using kits that contained different recombinant HDAC isoforms, we evaluated the ability of MPT0G009 to inhibit HDAC-mediated deacetylation of lysine residues on the substrates that were provided. […] Fluorogenic HDAC assay kits were used to assess the ability of HDAC inhibitors to inhibit deacetylation of lysine residues on the substrate by recombinant HDAC1, 2, 3, 4, 6 or 8 according to the manufacturer's instructions.

[2] = molecular target: T2, recombinant HDAC2 (Homo sapiens, UniProt Q92769); assay: Fluorogenic assay kit, recombinant HDAC2 enzyme activity; assay type: biochemical; details: mean±S.E.M., three replicate experiments; read-out: IC50 (nM) of HDAC isoforms enzyme, HDAC2
T2 construct: purchased BPS Bioscience Corp. (San Diego, CA, USA)
Excerpt: as §1

[3] = tested on: HDACs in human RA fibroblast-like synoviocytes; assay: HDAC activity assay of cell lysates (RA-FLS); assay type: cell-based
Excerpt: (§2) We have synthesized 1-arylsulfonyl-5-(N-hydroxyacrylamide) indolines derivative HDAC inhibitors. […] In this study, we evaluated the anti-arthritic effects of MPT0G009 in vitro and in an in vivo model and determined the pharmacokinetics and its maximum tolerated dose (MTD).
(§3) Colorimetric HDAC activity kits were used to assay HDAC activity in cell lysates according to the manufacturer's instructions.

[4] = tested on: CD-1 mice; assay: Determination of the MTD in CD-1 mice; assay type: in vivo; details: for Lethality (%): qd × 7; for Change of body weight (%) Day 7 / Change of body weight (%) Day 14 / Change of body weight (%) Day 21: qd × 7, mean±S.E.M.
Method: The MTD was determined using CD-1 mice at 8–10 weeks of age by dose ranging from 250 to 1000 mg/kg orally once a day for 1 week and then monitored for another 2 weeks. Each dose was tested on six mice in individual independent experiments. MTD was defined as the highest dose that could be given resulting in no drug-related moribund state or death, while temporary body weight loss was within 20%.

[5] = tested on: RA-FLS; assay: Cell proliferation assay (SRB), RA-FLS; assay type: cell-based, human; details: 24 or 48 h
[6] = Pharmacokinetic evaluation in Sprague–Dawley rats; assay type: in vivo; details: male, plasma, rat
Method: The pharmokinetic parameters of MPT0G009 in rats after single-dose intravenous (i.v.) and oral administration are summarized in Table 2.
A 1–5 mg/ml dosing solution was preparing by dissolving appropriate amount compound in a mixture of PEG400/DMSO (80 : 20, v/v) for i.v. administration and 1% carboxylmethyl cellulose, 0.5% Tween 80 for oral dosing, respectively. Eight to 10-week-old male Sprague–Dawley rats were obtained from BioLASCO Corp. (Ilan, Taiwan), and tested compound was separately administered to group of rats (n=3 per group) i.v. (2 mg/kg dose) by a bolus injection to jugular vein or periorally (20 mg/kg dose). Blood sample (0.15 ml) from 0 h (before dosing) to 24 h was collected from each animal via the jugular vein cannula and stored in ice. Plasma was separated from the blood and centrifuged at 14 000 g for 30 min at 4 °C. All samples were analyzed for the test compound by LC-MS/MS (ABI4000; Applied Biosystems, Foster City, CA, USA). Data were acquired via multiple reactions monitoring. Plasma concentration data were analyzed with standard noncompartmental method.

[7] = molecular target: T3, recombinant HDAC4 (Homo sapiens, UniProt P56524); assay: Fluorogenic assay kit, recombinant HDAC4 enzyme activity; assay type: biochemical; details: three replicate experiments; read-out: IC50 (nM) of HDAC isoforms enzyme, HDAC4
T3 construct: purchased BPS Bioscience Corp. (San Diego, CA, USA)
Excerpt: as §1

[8] = molecular target: T4, recombinant HDAC3 (Homo sapiens, UniProt O15379); assay: Fluorogenic assay kit, recombinant HDAC3 enzyme activity; assay type: biochemical; details: mean±S.E.M., three replicate experiments; read-out: IC50 (nM) of HDAC isoforms enzyme, HDAC3
T4 construct: purchased BPS Bioscience Corp. (San Diego, CA, USA)
Excerpt: as §1

[9] = tested on: HDACs in rabbit synovial fibroblast cell line HIG-82; assay: HDAC activity assay of cell lysates (HIG-82); assay type: cell-based; details: HIG-82 cell line
Excerpt: as §2, §3

[10] = tested on: CD51/61 on RAW264.7 cells; assay: Osteoclast-specific marker CD51/61 by flow cytometry; details: RAW264.7, M-CSF/RANKL; 5 nM MPT0G009 or 50 nM SAHA
Method: Subsequently, multinucleate tartrate-resistant acid phosphatase (TRAP)-positive cells were counted.
Cells were then TRAP stained, and the numbers of TRAP-positive multinuclear cells were counted. […] Images are at × 100 magnification, and the arrows indicate differentiated osteoclasts.
Cells were then TRAP stained, and the numbers of TRAP-positive multinuclear cells were counted (d) or were incubated with a FITC-conjugated anti-CD51/61 antibody and analyzed by flow cytometry (e).
After three washes with FACS washing buffer, the fluorescence of the cells was analyzed on a FACScan flow cytometer (BD Biosciences).

[11] = tested on: RAW264.7 cells; assay: Inflammatory mediator production by LPS-stimulated RAW264.7 cells; assay type: cell-based, mouse; details: RAW264.7, LPS 25 ng/ml 24 h; MPT0G009 0.1, 1 or 10 μM; SAHA 0.3, 3 or 30 μM
Method: (a) Structure of MPT0G009.
These supernatants were then assayed for prostaglandin E2 (PGE2), NO and IL-6.

[12] = molecular target: T5, recombinant HDAC8 (Homo sapiens, UniProt Q9BY41); assay: Fluorogenic assay kit, recombinant HDAC8 enzyme activity; assay type: biochemical; details: mean±S.E.M., three replicate experiments; read-out: IC50 (nM) of HDAC isoforms enzyme, DHAC8
T5 construct: purchased BPS Bioscience Corp. (San Diego, CA, USA)
Excerpt: as §1

[13] = tested on: HIG-82 synoviocytes; assay: Cell proliferation assay (SRB), HIG-82 synoviocytes; assay type: cell-based, rabbit; details: 24 or 48 h
[14] = tested on: RA-FLS; assay: Cell cycle distribution by propidium iodide flow cytometry; assay type: cell-based, human; details: RA-FLS 24 h, MPT0G009 1–1000 nM, SAHA 3–3000 nM
[15] = tested on: p21 in RA-FLS; assay: p21 expression in RA-FLS by flow cytometry
Method: After three washes with FACS washing buffer, the fluorescence of the cells was analyzed on a FACScan flow cytometer (BD Biosciences). […] They were then incubated for 30 min at room temperature with 0.2 ml of DNA extraction buffer (0.2 M Na2HPO4 and 0.1 M citric acid buffer, pH 7.8), resuspended in 1 ml of propidium iodide staining buffer (0.1% Triton X-100, 100 μg/ml of RNase A and 80 μg/ml of propidium iodide in PBS), incubated at 37 °C for 30 min in the dark, sorted by FACScan, and analyzed using CellQuest software (BD Biosciences).

T3 sequence (P56524 627-1084 limits assumed): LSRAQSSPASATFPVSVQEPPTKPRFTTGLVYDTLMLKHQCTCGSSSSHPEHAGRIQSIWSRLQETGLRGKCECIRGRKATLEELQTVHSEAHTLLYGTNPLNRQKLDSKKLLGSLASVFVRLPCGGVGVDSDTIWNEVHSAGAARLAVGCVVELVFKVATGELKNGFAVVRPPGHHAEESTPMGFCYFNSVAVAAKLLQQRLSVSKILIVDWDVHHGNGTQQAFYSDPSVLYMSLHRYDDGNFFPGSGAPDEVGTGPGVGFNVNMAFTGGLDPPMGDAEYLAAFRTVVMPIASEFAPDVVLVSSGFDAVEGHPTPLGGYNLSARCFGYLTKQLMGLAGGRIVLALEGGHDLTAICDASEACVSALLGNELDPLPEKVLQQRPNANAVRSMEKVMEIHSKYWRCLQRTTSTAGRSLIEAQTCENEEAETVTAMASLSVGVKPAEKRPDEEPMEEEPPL
T1 sequence (Q9UBN7 whole entry, canonical isoform): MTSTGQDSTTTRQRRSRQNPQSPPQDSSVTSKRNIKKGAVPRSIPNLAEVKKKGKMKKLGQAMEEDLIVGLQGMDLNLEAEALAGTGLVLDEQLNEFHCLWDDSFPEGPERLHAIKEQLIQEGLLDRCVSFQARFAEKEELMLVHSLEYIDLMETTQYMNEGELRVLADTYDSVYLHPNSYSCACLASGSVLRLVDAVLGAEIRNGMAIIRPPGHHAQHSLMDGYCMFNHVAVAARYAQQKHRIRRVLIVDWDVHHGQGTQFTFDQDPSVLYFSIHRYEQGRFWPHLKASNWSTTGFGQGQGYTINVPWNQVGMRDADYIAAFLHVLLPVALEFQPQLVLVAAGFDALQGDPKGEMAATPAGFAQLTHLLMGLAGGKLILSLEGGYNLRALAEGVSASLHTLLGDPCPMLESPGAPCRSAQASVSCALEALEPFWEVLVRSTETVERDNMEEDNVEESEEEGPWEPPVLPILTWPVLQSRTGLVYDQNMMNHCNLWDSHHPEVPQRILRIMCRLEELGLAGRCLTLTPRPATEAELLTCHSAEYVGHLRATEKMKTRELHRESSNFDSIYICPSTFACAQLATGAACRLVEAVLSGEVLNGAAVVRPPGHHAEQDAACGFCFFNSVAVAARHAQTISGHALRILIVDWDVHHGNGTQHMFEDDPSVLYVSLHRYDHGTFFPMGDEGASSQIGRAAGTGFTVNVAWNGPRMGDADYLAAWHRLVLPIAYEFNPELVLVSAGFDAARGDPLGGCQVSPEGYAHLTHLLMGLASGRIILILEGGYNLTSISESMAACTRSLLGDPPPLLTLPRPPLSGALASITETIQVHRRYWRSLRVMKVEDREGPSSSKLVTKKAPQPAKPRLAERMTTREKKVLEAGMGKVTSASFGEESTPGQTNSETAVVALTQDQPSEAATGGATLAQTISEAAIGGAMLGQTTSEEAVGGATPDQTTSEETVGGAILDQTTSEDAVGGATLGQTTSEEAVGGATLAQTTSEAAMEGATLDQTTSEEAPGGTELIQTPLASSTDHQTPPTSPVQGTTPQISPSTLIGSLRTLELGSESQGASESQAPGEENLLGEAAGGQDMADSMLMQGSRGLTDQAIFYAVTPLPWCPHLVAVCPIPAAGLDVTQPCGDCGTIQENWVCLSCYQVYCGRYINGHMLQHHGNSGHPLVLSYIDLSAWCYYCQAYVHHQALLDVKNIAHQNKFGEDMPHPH
T4 sequence (O15379 whole entry, canonical isoform): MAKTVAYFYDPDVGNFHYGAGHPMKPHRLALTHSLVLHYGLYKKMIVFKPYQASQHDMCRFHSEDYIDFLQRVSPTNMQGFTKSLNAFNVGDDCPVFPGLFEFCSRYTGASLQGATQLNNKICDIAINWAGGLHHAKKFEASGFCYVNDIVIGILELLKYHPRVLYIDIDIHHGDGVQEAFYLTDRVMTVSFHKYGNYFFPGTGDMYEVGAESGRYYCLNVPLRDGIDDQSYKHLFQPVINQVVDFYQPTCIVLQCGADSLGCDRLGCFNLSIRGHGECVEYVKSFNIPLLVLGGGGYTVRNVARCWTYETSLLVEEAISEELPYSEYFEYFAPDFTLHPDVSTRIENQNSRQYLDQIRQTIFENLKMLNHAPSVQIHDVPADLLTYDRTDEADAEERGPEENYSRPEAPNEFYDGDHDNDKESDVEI
T4 sequence (Q9Y618 395-489 partner limits assumed): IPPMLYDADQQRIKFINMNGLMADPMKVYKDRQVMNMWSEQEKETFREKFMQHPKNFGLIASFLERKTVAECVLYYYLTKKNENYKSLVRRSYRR
T5 sequence (Q9BY41 whole entry, canonical isoform): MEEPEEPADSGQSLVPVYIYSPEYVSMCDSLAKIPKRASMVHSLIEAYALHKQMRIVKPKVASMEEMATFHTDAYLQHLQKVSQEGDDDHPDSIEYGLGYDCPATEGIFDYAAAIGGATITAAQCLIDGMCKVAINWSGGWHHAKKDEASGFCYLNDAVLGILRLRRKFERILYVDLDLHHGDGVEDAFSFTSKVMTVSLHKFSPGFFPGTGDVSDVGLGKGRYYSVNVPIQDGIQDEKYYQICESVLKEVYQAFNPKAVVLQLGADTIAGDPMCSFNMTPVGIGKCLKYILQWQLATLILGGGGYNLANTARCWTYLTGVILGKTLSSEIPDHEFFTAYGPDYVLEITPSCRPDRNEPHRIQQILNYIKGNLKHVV
T2 sequence (Q92769 whole entry, canonical isoform): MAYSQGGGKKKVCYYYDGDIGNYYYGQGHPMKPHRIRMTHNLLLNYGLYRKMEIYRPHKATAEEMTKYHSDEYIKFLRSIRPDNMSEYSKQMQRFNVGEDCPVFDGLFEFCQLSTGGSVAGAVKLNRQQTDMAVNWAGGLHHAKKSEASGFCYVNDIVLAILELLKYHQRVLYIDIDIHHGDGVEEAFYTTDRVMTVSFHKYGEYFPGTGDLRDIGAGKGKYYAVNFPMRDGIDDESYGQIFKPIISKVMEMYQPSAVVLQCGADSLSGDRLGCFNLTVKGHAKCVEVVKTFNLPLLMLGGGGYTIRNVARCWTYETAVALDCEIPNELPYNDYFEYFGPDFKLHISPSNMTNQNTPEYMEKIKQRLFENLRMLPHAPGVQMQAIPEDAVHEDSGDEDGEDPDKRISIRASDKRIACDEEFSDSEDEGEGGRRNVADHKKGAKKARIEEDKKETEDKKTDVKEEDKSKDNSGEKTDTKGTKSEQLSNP

With COc1ccc(S(=O)(=O)N2CCc3cc(C=CC(=O)NO)ccc32)cc1 [MPT0G009, 3-[1-(4-methoxybenzenesulfonyl)-2,3-dihydro-1H-indol-5-yl]-N-hydroxyacrylamide] the IC50 [1] was 8.43 ± 0.72 nM, the IC50 [2] was 5.16 ± 0.76 nM and the “potency relative to SAHA on HDACs inhibition” value [3] was > 10 times. The “Lethality (%)” value ([4]; 250 mg/kg p.o.) was 0%, the “Change of body weight (%) Day 7” value ([4]; 250 mg/kg p.o.) was “+8.7±0.5%” and the “Change of body weight (%) Day 14” value ([4]; 250 mg/kg p.o.) was “+17.0±0.4%”. The “Change of body weight (%) Day 21” value ([4]; 250 mg/kg p.o.) was “+22.6±0.6%”, the “Lethality (%)” value ([4]; 500 mg/kg p.o.) was 0% and the “Change of body weight (%) Day 7” value ([4]; 500 mg/kg p.o.) was “+1.6±0.3%”. For the same molecule, the “Change of body weight (%) Day 14” value ([4]; 500 mg/kg p.o.) was “+16.5±0.6%”, the “Change of body weight (%) Day 21” value ([4]; 500 mg/kg p.o.) was “+24.0±0.9%” and the “Lethality (%)” value ([4]; 1000 mg/kg p.o.) was 0%. The “Change of body weight (%) Day 7” value ([4]; 1000 mg/kg p.o.) was “+4.4±0.6%”, the “Change of body weight (%) Day 14” value ([4]; 1000 mg/kg p.o.) was “+12.0±0.7%” and the “Change of body weight (%) Day 21” value ([4]; 1000 mg/kg p.o.) was “+15.3±0.8%”. The “adverse effects / tolerability” value ([4]; up to 1000 mg/kg/day, daily × 7, within 3 weeks) was “No significant adverse effects; also recorded: well tolerated and safe”, the anti-proliferative effect [5] was “concentration-dependent anti-proliferative effects” and the AUC(0-inf) ([6]; iv, i.v. 2 mg/kg) was 665 ng·h/mL. The Vd ([6]; iv, i.v. 2 mg/kg) was 25.2 L/kg, the clearance ([6]; iv, i.v. 2 mg/kg) was 85.3 mL/min/kg and the half-life ([6]; iv, i.v. 2 mg/kg) was 6.74 h. It also gave an AUC(0-inf) ([6]; po, p.o. 20 mg/kg) of 1260 ng·h/mL, a Cmax ([6]; po, p.o. 20 mg/kg) of 221 ng/mL and a Tmax ([6]; po, p.o. 20 mg/kg) of 3.43 h. The half-life ([6]; po, p.o. 20 mg/kg) was 9.53 h, the bioavailability ([6]; po, p.o. 20 mg/kg, read-out: F (oral bioavailability)) was 13% and the IC50 [7] was > 10000 nM. The IC50 [8] was 1.91 ± 0.22 nM, the “potency relative to SAHA on HDACs inhibition” value [9] was > 10 times and the “expression of the osteoclast-specific marker (CD51/61)” value [10] was “significantly inhibited”. For the same molecule, the NO production [11] was “inhibited”, the PGE2 production [11] was “inhibited” and the IC50 [12] was 22.5 ± 2.16 nM. The anti-proliferative effect [13] was “concentration-dependent anti-proliferative effects”, the “subG1 peak (cellular apoptosis)” value [14] was “did not increase the subG1 peak” and the cell cycle arrest ([14]; all concentrations) was “G0/G1 phase arrest”. The “expression of p21” value ([15]; RA-FLS 24 h, 1 μM MPT0G009 or 3 μM SAHA, flow cytometry or western blot) was “significantly increased” and the “p21 (flow cytometry)” value ([15]; RA-FLS, 1 μM, 24 h, Figure 1h) was 94.71%.
